According to patent US12318385B2, “Pharmaceutical composition comprising PARP inhibitors” (Jiangsu Hengrui Medicine CO., LTD., priority 2018, dated 2025):
Where two headings read alike, the source gives them in different places.

Experiment: Solubility of compound represented by formula I in different solvents
Type: physicochemical
Settings: for solubility at 30 min: thermodynamic from solid, read-out: Approximate Solubility
Experimental: Referring to tests under the General Notices, Volume II, Chinese Pharmacopoeia 2010, excessive compounds represented by formula I which were grinded to fine powder were weighed and transferred in a certain amount of solvent (25° C.±2° C.), and shaken vigorously for 30 s every 5 min. The dissolution of the drug was observed within 30 min. Then the solution was filtered, the initial filtrate was discarded, and the concentration of the successive filtrate was tested. The solubility was calculated.

- Solubility (descriptive term) (Acetone): slightly soluble
- Solubility (descriptive term) (Anhydrous Ethanol): very slightly soluble
- Solubility (descriptive term) (Tetrahydrofuran): slightly soluble
- solubility at 30 min (aqueous buffer, Acetate Buffer pH 4.5, 25° C.±2° C.): 0.85 µg/mL
- solubility at 30 min (aqueous buffer, Phosphate Buffer pH 6.8, 25° C.±2° C.): 0.59 µg/mL
- solubility at 30 min (aqueous with cosolvent or surfactant or cyclodextrin, 5% Polysorbate 80 Aqueous Solution, 25° C.±2° C.): 19.5 µg/mL
- Solubility (descriptive term) (conventional aqueous solvents): practically insoluble
- solubility at 30 min (organic solvent or mixture, Acetone, 25° C.±2° C.): 4960 µg/mL
- solubility at 30 min (organic solvent or mixture, Anhydrous Ethanol, 25° C.±2° C.): 458 µg/mL
- solubility at 30 min (organic solvent or mixture, Tetrahydrofuran, 25° C.±2° C.): 8550 µg/mL
- solubility at 30 min (simulated gastric fluid, 0.1 mol/L Hydrochloric Acid, 25° C.±2° C.): 0.78 µg/mL
SMILES: O=C(c1cc(Cc2n[nH]c(=O)c3ccccc23)ccc1F)N1CCn2nc(C(F)(F)F)nc2C1 [Compound represented by formula I]
